# Reference: ChEMBL document CHEMBL1156497, “EF24 induces G2/M arrest and apoptosis in cisplatin-resistant human ovarian cancer cells by increasing PTEN expression” (J Biol Chem, 2007)
# pIC50: −log10 of the molar value. The source made the active and inactive calls. No cut-off for these calls is given here. Residues, ends and D or L forms follow the SMILES beside them. *: point of attachment. Cbz = O=C(OCc1ccccc1)*
# Experiments:
# [1] = tested on: A2780; assay: Induction of apoptosis in cisplatin-resistant human A2780 cells assessed as decrease in phosphorylated Akt level at 2 uM after 12 hrs by immunoblot analysis; assay type: functional, cell-based
# [2] = tested on: A2780; assay: Induction of apoptosis in cisplatin-resistant human A2780 cells assessed as inhibition of PTEN degradation at 2 uM by immunoblot analysis; assay type: functional, cell-based
# [3] = tested on: A2780; assay: Induction of apoptosis in cisplatin-resistant human A2780 cells overexpressing PTEN assessed as enhancement of p53 by Western blotting; assay type: functional, cell-based
# [4] = tested on: A2780; assay: Reversal of induction of apoptosis in cisplatin-resistant human A2780 cells assessed as suppression of PTEN by immunoblot analysis in presence of PTEN-specific siRNA; assay type: functional, cell-based
# [5] = tested on: A2780; assay: Induction of apoptosis in cisplatin-resistant human A2780 cells assessed as decrease in MDM2 level at 2 uM by immunoblot analysis; assay type: functional, cell-based; settings: TDE = time-dependent effect
# [6] = tested on: A2780; assay: Induction of apoptosis in cisplatin-resistant human A2780 cells assessed as enhancement of p53 level at 2 uM by immunoblot analysis; assay type: functional, cell-based
# [7] = tested on: A2780; assay: Induction of apoptosis in cisplatin-resistant human A2780 cells assessed as decrease in Cdc25C expression at 2 uM by immunoblot analysis; assay type: functional, cell-based; settings: TDE = time-dependent effect
# [8] = tested on: A2780; assay: Induction of apoptosis in cisplatin-resistant human A2780 cells overexpressing PTEN assessed as inhibition of pAkt by Western blotting; assay type: functional, cell-based
# [9] = tested on: A2780; assay: Reversal of induction of apoptosis in cisplatin-resistant human A2780 cells assessed as accumulation at sub-G1 phase at 2 uM after 24 hrs by flow cytometry in presence of z-VAD-fmk; assay type: functional, cell-based
# [10] = tested on: A2780; assay: Induction of apoptosis in cisplatin-resistant human A2780 cells assessed as decrease in CycB1 expression at 2 uM by immunoblot analysis; assay type: functional, cell-based; settings: TDE = time-dependent effect
# [11] = tested on: A2780; assay: Induction of apoptosis in cisplatin-resistant human A2780 cells assessed as increase in FasL receptor expression at 2 uM by immunoblot analysis; assay type: functional, cell-based; settings: TDE = time-dependent effect
# [12] = tested on: A2780; assay: Cell viability of cisplatin-resistant human A2780 cells overexpressing PTEN at 2 uM after 24 hrs by MTT assay; assay type: functional, cell-based
# [13] = tested on: A2780; assay: Reversal of induction of apoptosis in cisplatin-resistant human A2780 cells assessed as decrease of p21 level by immunoblot analysis in presence of PTEN-specific siRNA; assay type: functional, cell-based
# [14] = tested on: A2780; assay: Induction of apoptosis in cisplatin-resistant human A2780 cells assessed as decrease in Cdc2 expression at 2 uM by immunoblot analysis; assay type: functional, cell-based; settings: TDE = time-dependent effect
# [15] = tested on: A2780; assay: Induction of apoptosis in cisplatin-resistant human A2780 cells overexpressing PTEN assessed as enhancement of cleaved PARP by Western blotting; assay type: functional, cell-based
# [16] = tested on: A2780; assay: Induction of apoptosis in cisplatin-resistant human A2780 cells assessed as increase in Fas/CD95 receptor expression at 2 uM after 6 to 24 hrs by immunoblot analysis; assay type: functional, cell-based
# [17] = tested on: CHO; assay: Cell viability of CHO cells after 24 hrs by MTT assay; assay type: functional, cell-based; settings: Cricetulus griseus
# [18] = tested on: A2780; assay: Induction of apoptosis in cisplatin-resistant human A2780 cells assessed as enhancement of p21 level at 2 uM by immunoblot analysis; assay type: functional, cell-based
# [19] = tested on: A2780; assay: Induction of apoptosis in cisplatin-resistant human A2780 cells assessed as inhibition of pPTEN degradation at 2 uM by immunoblot analysis; assay type: functional, cell-based
# [20] = tested on: A2780; assay: Cell viability of human cisplatin-sensitive human A2780 cells after 24 hrs by MTT assay; assay type: functional, cell-based; settings: A2780, 24 h
# [21] = tested on: A2780; assay: Induction of apoptosis in cisplatin-resistant human A2780 cells overexpressing PTEN assessed as enhancement of cleaved caspase-3 by Western blotting; assay type: functional, cell-based
# [22] = tested on: A2780; assay: Reversal of induction of apoptosis in cisplatin-resistant human A2780 cells assessed as inhibition of cleaved caspase-3 by immunoblot analysis in presence of PTEN-specific siRNA; assay type: functional, cell-based
# [23] = tested on: A2780; assay: Induction of apoptosis in cisplatin-resistant human A2780 cells assessed as decrease in CycD1 expression at 2 uM by immunoblot analysis; assay type: functional, cell-based; settings: TDE = time-dependent effect
# [24] = tested on: A2780; assay: Induction of apoptosis in cisplatin-resistant human A2780 cells assessed as accumulation at G2/M phase at 2 uM after 12 hrs by flow cytometry relative to control; assay type: functional
# [25] = tested on: A2780; assay: Reversal of induction of apoptosis in cisplatin-resistant human A2780 cells assessed as decrease of p53 level by immunoblot analysis in presence of PTEN-specific siRNA; assay type: functional, cell-based
# [26] = tested on: A2780; assay: Induction of apoptosis in cisplatin-resistant human A2780 cells assessed as enhancement of p53 phosphorylation at 2 uM by immunoblot analysis; assay type: functional, cell-based
# [27] = tested on: A2780; assay: Induction of apoptosis in cisplatin-resistant human A2780 cells assessed as accumulation at G2/M phase at 2 uM after 3 hrs by flow cytometry relative to control; assay type: functional
# [28] = tested on: A2780; assay: Induction of apoptosis in cisplatin-resistant human A2780 cells assessed as decrease in CycA expression at 2 uM by immunoblot analysis; assay type: functional, cell-based; settings: TDE = time-dependent effect
# [29] = tested on: A2780; assay: Induction of apoptosis in cisplatin-resistant human A2780 cells assessed as change in Wee1 level at 2 uM by immunoblot analysis; assay type: functional, cell-based
# [30] = tested on: A2780; assay: Reversal of induction of apoptosis in cisplatin-resistant human A2780 cells assessed as increase of Akt phosphorylation by immunoblot analysis in presence of PTEN-specific siRNA; assay type: functional, cell-based
# [31] = tested on: A2780; assay: Induction of apoptosis in cisplatin-resistant human A2780 cells assessed as decrease in pERK1/2 level at 2 uM after 24 hrs by immunoblot analysis; assay type: functional, cell-based
# [32] = tested on: A2780; assay: Reversal of induction of apoptosis in cisplatin-resistant human A2780 cells assessed as inhibition of cleaved PARP by immunoblot analysis in presence of PTEN-specific siRNA; assay type: functional, cell-based
# [33] = tested on: A2780; assay: Induction of apoptosis in cisplatin-resistant human A2780 cells assessed as activation of caspase cascade at 2 uM after 6 to 24 hrs by Western blotting; assay type: functional, cell-based
# [34] = tested on: A2780; assay: Induction of apoptosis in cisplatin-resistant human A2780 cells assessed as accumulation at sub-G1 phase at 2 uM after 24 hrs by flow cytometry relative to control; assay type: functional
# [35] = tested on: A2780; assay: Induction of apoptosis in cisplatin-resistant human A2780 cells assessed as increase in TNFR1 expression at 2 uM after 6 to 24 hrs by immunoblot analysis; assay type: functional, cell-based
# [36] = tested on: A2780; assay: Reversal of induction of apoptosis in cisplatin-resistant human A2780 cells assessed as inhibition of cleaved caspase-7 by immunoblot analysis in presence of PTEN-specific siRNA; assay type: functional, cell-based
# [37] = tested on: A2780; assay: Induction of apoptosis in cisplatin-resistant human A2780 cells overexpressing PTEN assessed as enhancement of p21 by Western blotting; assay type: functional, cell-based
# [38] = tested on: A2780; assay: Induction of apoptosis in cisplatin-resistant human A2780 cells assessed as enhancement of p27 level at 2 uM by immunoblot analysis; assay type: functional, cell-based
# [39] = tested on: A2780; assay: Induction of apoptosis in cisplatin-resistant human A2780 cells assessed as decrease in pERK1/2 level at 2 uM after 48 hrs by immunoblot analysis; assay type: functional, cell-based
# [40] = tested on: A2780; assay: Cell viability of cisplatin-resistant human A2780 cells after 24 hrs by MTT assay; assay type: functional, cell-based; settings: A2780, 24 h
# [41] = tested on: A2780; assay: Induction of apoptosis in cisplatin-resistant human A2780 cells assessed as accumulation at G2/M phase at 2 uM after 6 hrs by flow cytometry relative to control; assay type: functional
compound,measurement,setting,value
O=c1cc(N2CCOCC2)oc2c(-c3ccccc3)cccc12,Activity,[1],Active
CC(C)C[C@@H](C=O)NC(=O)[C@H](CC(C)C)NC(=O)[C@H](CC(C)C)NC(=O)OCc1ccccc1 (Cbz-Leu-Leu-Leu-aldehyde),Activity,[2],Active
O=C1/C(=C/c2ccccc2F)CNC/C1=C\c1ccccc1F,Activity,[3],Active
same,Activity,[2],Active
same,Activity,[4],Active
same,Activity,[5],tde
same,Activity,[6],Active
same,Activity,[7],tde
same,Activity,[8],Active
same,Activity,[9],Active
same,Activity,[10],tde
same,Activity,[11],tde
same,Activity,[12],Active
same,Activity,[13],Active
same,Activity,[14],tde
same,Activity,[15],Active
same,Activity,[16],inactive
same,pIC50,[17],5.34
same,Activity,[18],Active
same,Activity,[19],Active
same,pIC50,[20],6.30
same,Activity,[21],Active
same,Activity,[22],Active
same,Activity,[1],Active
same,Activity,[23],tde
same,Activity,[24],57.5%
same,Activity,[25],Active
same,Activity,[26],Active
same,Activity,[27],27.3%
same,Activity,[28],tde
same,Activity,[29],inactive
same,Activity,[30],Active
same,Activity,[31],Active
same,Activity,[32],Active
same,Activity,[33],Active
same,Activity,[34],35.3%
same,Activity,[35],inactive
same,Activity,[36],Active
same,Activity,[37],Active
same,Activity,[38],inactive
same,Activity,[39],Active
same,pIC50,[40],6.19
same,Activity,[41],36.8%
